These results are taken from patent US20250281456A1, “METHODS OF TREATING CANCER BY INHIBITING BACTERIAL DNAK TO RESTORE ACTIVITIES OF ANTICANCER DRUGS” (University of Maryland, Baltimore, priority 2022, published 2025).

Like-named read-outs stand apart in the source and are kept apart here.

Experiment [1] concerns HCT116 cells infected with Mycoplasma. Description: Cell viability of Mycoplasma-infected HCT116 cells (LIVE/DEAD kit). The settings on record: 5FU or Nutlin-3, 48 hours. In kind it is cell-based, human. As for the experimental part:
FIG. 2. DnaK negatively affects p53 activities and Mycoplasma infection reduces the effect of anti-cancer drugs. (A) DnaK reduces p53-associated activities in HCT116 cells. Levels of p53, p21, Bax and PUMA proteins were analyzed in control, vector and DnaK transfected cells at different time-points (2, 8 and 16 hours). Expression of DnaK was verified using the anti-V5 antibody. NT: not transfected; VT: vector transfected; DnaK: DnaK transfected; M: media; D: DMSO; N: Nutlin. β-act: β-actin. Band intensity was measured by densitometric analysis. Numbers above bands indicate fold increase above level of nutlin-treated DnaK-transfected cells, normalized for the levels of β-actin. (B) DnaK increases cell cycle progression. HCT116 cells were transfected with a DnaK-expressing vector and subsequently analyzed for cell cycle progression. Data were collected 16-24 hours after transfection. Results represent mean and standard deviations of 5 different experiments. […] Results are expressed as percent cell viability over control (uninfected cells in media alone were considered as 100%). Mean difference is shown. *=p<0.001—calculated using Poisson regression.
HCT116 cells (colon carcinoma cell line) were obtained from ATCC. […] In all experiments cell viability was calculated as a percentage relative to the control cultures. […]

Experiment [2] relates to HCT116 cells. Description: cells. The settings on record: Homo sapiens, HCT-116, 48 h, 48 h. As for the experimental part: (§1) FIG. 11. […] Parallel wells of untreated cells were used as negative control. Cell viability was assessed by using the trypan blue assay. Percentage of alive cells for each treatment are calculated as percentage using the untreated cell as reference. […] Statistical differences were tested using Student's t test. All statistical tests were two sided. p=***<0.001, **<0.01, *<0.05, ns=not significant.
(§2) FIG. 14. […] Parallel wells of untreated cells were used as negative control. Cell viability was assessed by using the trypan blue assay. Percentage of alive cells for each treatment are calculated as percentage using the untreated cell as reference. […] Statistical differences were tested using Student's t test. All statistical tests were two sided. p=*<0.05, **<0.01, ***<0.001.
(§3) To determine the effects of eM and eF-DnaKs on HCT116 and AGS cells lines treated with different anti-cancer drugs, cells were plated 200,000 cells/well in 6-wells plates. After 24 h, both eM-DnaK and eF-DnaK were added to the cultures at a concentration of 10 ug/ml. […] Parallel cultures of untreated cells were the negative controls. […] After 48 h of treatment with the anti-cancer drugs, cell monolayers were washed in PBS, trypsinized and cell viability was measured using the trypan blue assay. The trypan blue exclusion assay allows for a direct identification and enumeration of live (unstained) and dead (blue) cells in the given population.
(§4) More in detail, we pre-treated both exogenous DnaKs with ARV-1502 (25 μg/ml) before adding them to the culture of HCT116 or AGS cells. After 3 h of incubation the complex was added to the culture. After 24 h the cells were treated with the anti-cancer drugs and then subjected to count with trypan blue as previously described. Parallel cultures of cells treated with the drugs and DnaKs not complexed with ARV-1502 were used as control.

A further experiment deals with AGS cells. Description: cells. The settings on record: Homo sapiens, 48 h. As for the experimental part:
as §1, §2, §3, §4

Experiment [3] concerns primary murine cancer cells constitutively expressing DnaK. Description: cells. To be noted: Mus musculus, read-out: cell viability.
Experiment [4] relates to HCT116 cells. Description: HCT116 cell viability (trypan blue) with cisplatin, exogenous DnaKs and DnaK inhibitor (Example 4). In kind it is cell-based, human.
Method: After 24 h, both eM-DnaK and eF-DnaK were added to the cultures at a concentration of 10 ug/ml. […] Parallel cultures of untreated cells were the negative control. […] After 48 h of treatment with the anti-cancer drugs, cell monolayers were washed in PBS, trypsinized and cell viability was measured using the trypan blue assay. The trypan blue exclusion assay allows for a direct identification and enumeration of live (unstained) and dead (blue) cells in the given population.
More in detail, we pre-treated both DnaKs with Telaprevir (25 μg/ml) before adding them to the culture of HCT116 cells. After 3 h of incubation the complex was added to the culture. After 24 h the cells were treated with the anti-cancer drugs and then subjected to count with trypan blue as previously described. Parallel cultures of cells treated with the drugs and DnaKs not complexed with Telaprevir were used as control.
For another experiment, the target named is M. tuberculosis DnaK (Mycobacterium tuberculosis, UniProt P9WMJ9). To be noted: previously demonstrated; cited from earlier work.
Experiment [5] has as its target Mycoplasma fermentans DnaK-V5, expressed inside cells (codon-optimized DnaK vector transfected into (Mycoplasma fermentans)). Description: cell-based or functional assay.
The target in experiment [6] is Recombinant purified exogenous Mycoplasma fermentans DnaK-V5 protein (eM-DnaK) (Mycoplasma fermentans). Description: SPR (BIAcore T100), eM-DnaK immobilized on CM5 chip (2274.9 RU), ARV-1502 as analyte. For orientation: In SPR one partner is held on a chip, and binding of the other changes the refractive index at the surface.

A word on the Kd: it is the equilibrium constant for the complex coming apart.

With `O=c1[nH]cc(F)c(=O)[nH]1` [5FU, 5-Fluorouracil], the “effect of Mycoplasma infection on drug activity (cell viability)” value in experiment [1] is listed as “resistance to these anti-cancer drugs”. In addition, the viability at 75 µM with HCT116 cells [2] (read-out: cell viability, HCT116, drug alone (eF-DnaK experiment), Cisplatin 2 μM or 5FU 75 μM, % of untreated cells) stood at 14%; in the experiment with HCT116 cells [2] (read-out: cell viability, HCT116, drug alone (eM-DnaK experiment), Cisplatin 25 μM or 5FU 75 μM, % of untreated cells) it was 14%; in the experiment with HCT116 cells [2] (read-out: cell viability, HCT116, drug in the presence of eF-DnaK (10 ug/ml), Cisplatin 2 μM or 5FU 75 μM), 17%; in the experiment with HCT116 cells [2] (read-out: cell viability, HCT116, drug in the presence of eM-DnaK (10 ug/ml), Cisplatin 25 μM or 5FU 75 μM) it was 16%; with AGS cells (read-out: cell viability, AGS, drug alone (eF-DnaK experiment), Cisplatin 2 μM or 5FU 75 μM, 48 h, % of untreated cells), 31%; in the experiment with AGS cells (read-out: cell viability, AGS, drug alone (eM-DnaK experiment), Cisplatin 25 μM or 5FU 75 μM, 48 h, % of untreated cells), 15%. For the same molecule, the viability at 75 µM in the experiment with AGS cells (read-out: cell viability, AGS, drug in the presence of eF-DnaK (10 ug/ml), Cisplatin 2 μM or 5FU 75 μM, 48 h) turned out to be 42%; in the experiment with AGS cells (read-out: cell viability, AGS, drug in the presence of eM-DnaK (10 ug/ml), Cisplatin 25 μM or 5FU 75 μM, 48 h), 33%; in experiment [3], 55%.
Consider `COc1ccc(C2=N[C@@H](c3ccc(Cl)cc3)[C@@H](c3ccc(Cl)cc3)N2C(=O)N2CCNC(=O)C2)c(OC(C)C)c1` [Nutlin, Nutlin-3], for which the “effect of Mycoplasma infection on drug activity (cell viability)” value in experiment [1] is listed as “resistance to these anti-cancer drugs”.
As for `CCC[C@H](NC(=O)[C@@H]1[C@H]2CCC[C@H]2CN1C(=O)[C@@H](NC(=O)[C@@H](NC(=O)c1cnccn1)C1CCCCC1)C(C)(C)C)C(=O)C(=O)NC1CC1` [Telaprevir, (3S,3aS,6aR)-2-[(2S)-2-[[(2S)-2-cyclohexyl-2-(pyrazine-2-carbonylamino)acetyl]amino]-3,3-dimethylbutanoyl]-N-[(3S)-1-(cyclopropylamino)-1,2-dioxohexan-3-yl]-3,3a,4,5,6,6a-hexahydro-1H-cyclopenta[c]pyrrole-3-carboxamide], the “restoration of cisplatin anti-cancer activity” value with HCT116 cells [4] (HCT116, cisplatin in the presence of eM-DnaK or eF-DnaK pre-treated with Telaprevir (25 μg/ml)) is listed as “restoration of the original anti-cancer activity”. Moreover, the “DnaK binding and ATPase activity” value on M. tuberculosis DnaK was “bind to M. tuberculosis DnaK substrate-binding domain and to reduce its ATPase activity”.
As for `COc1cc(C(=O)NS(=O)(=O)c2ccccc2C)ccc1Cc1cn(C)c2ccc(NC(=O)OC3CCCC3)cc12` [Zafirlukast, zafirlukast], in the experiment with HCT116 cells [4] (HCT116, cisplatin in the presence of DnaK from M. fermentans and F. nucleatum (FIG. 9)), the “restoration of cisplatin anticancer activity” value is “restores anticancer activity of cisplatin”.
With `N.N.[Cl][Pt][Cl]` [cisplatin], in the experiment on HCT116 cells [4] (HCT116, cisplatin in the presence of eM-DnaK or eF-DnaK), the “blunting of the anti-cancer effect of the drug” value is reported as 40-50%.
As for ARV-1502 (peptide), the cell viability of DnaK-expressing primary murine cancer cells, 5FU plus ARV-1502 in experiment [5] came to 40%. For the same molecule, in experiment [6], the Kd came to 1.9 µM.
